Results from US8790883B2, “Methods of identifying NF-κB inhibitors” (priority 2003, dated 2014).
Ends that are not written are not given here. Peptide text beside a SMILES is read from it. * marks the point of attachment. BODIPYFLEthylmaleimide = Cc1cc(C)n2c1C=C1C=CC(CCC(=O)NCCN3C(=O)CC(*)C3=O)=[N+]1[B-]2(F)F; BODIPY = not defined here

Key:
[1] = system: 70Z/3-C3 cells
Method: (A) Cellular delivery of NEMO peptides mediated by conjugation with the Antennapedia peptide.
0.5×10^6 70Z/3-C3 cells in 0.5 ml were incubated at 37° C. for different times and with various concentrations of peptides as indicated in the Figure legends. The cell suspension was centrifugated at 1,000×g at room temperature and the cell pellet was then washed three times with PBS buffer (1 ml), and finally was resuspended with 500 μl of PBS buffer containing 0.1% sodium azide. Fluorescence analysis was performed with a FACSCalibur (BD Biosciences) and a minimum of 15,000 events per sample was selected. All experiments were performed in duplicates.

[2] = Cytotoxicity of NLM-DR derived peptides (MTS, FACS, microscope), Table 2
[3] = system: LPS-induced NF-κB activation; test: More stringent NF-κB inhibition assay, second procedure: peptide internalization, washing, 24 h growth, then LPS; type: cell-based, murine; conditions: 10 μM peptide
Description: Left panels show a helical wheel diagram of CC2 (A) and LZ (B) peptides. The view is from the top the molecule. The (a) through (g) positions, which are an essential feature of coiled coil sequence (Vinson, 2002, Mol. Cell. Biol.) represent sequential positions in each peptide sequence. The first (a) and fourth (d) positions that are generally occupied by hydrophobic amino acids constitute the hydrophobic core for parallel as well as antiparallel-coiled coils. Mutations that were introduced in (a) positions of the CC2 variant (BODIPY-Ant-CC2 (Mu); shown as residues 6-40 of SEQ ID NO:3, with glycine mutations corresponding to residues 6-40 of SEQ ID NO:5) or in (d) positions of the LZ variant (BODIPY-Ant-(Mu) are shown. In the right panels, 70Z3-C3 cells were incubated for 2 hours in the absence (control) or in the presence of 10 μM of cell permeable wild type (BODIPY-Ant-CC2 (WT)) or mutant (BODIPY-Ant-CC2 (Mu)) CC2 peptides (A) or wild type (BODIPY-Ant-LZ (WT)) or mutant (BODIPY-Ant-(Mu)) LZ peptides (B). The cells were then extensively washed to remove the excess peptide which had not been internalized and the cells were then diluted three times and allowed to grow for 24 hours before treatment for 5 hours with (+) or without LPS (−). NF-κB activity was measured using the β-galactosidase assay. Error bars represent the standard deviation of two independent experiments.
(A) Sequence alignment of the NEMO-derived LZ (residues 301-336 of SEQ ID NO: 12) and the GCN4 peptides (residues 23-55 of SEQ ID NO:8). Both coiled-coil motifs were aligned using clustalX. Identical and similar amino acid residues (shaded) are indicated by (!) or (*), respectively. (B) Overview and helical wheel diagram of the GCN4 coiled-coil (top view). The amino-acid sequence of GCN4 is shown with its corresponding [a-g] positions and residues that differ from the corresponding NEMO-derived LZ sequence are boxed according to their degree of conservation. Identical (open square) and similar residues (open triangle) are indicated. […] NF-κB activity was measured using the b-galactosidase assay. […]

[4] = Analytical gel filtration, oligomeric states of peptides; type: physicochemical; conditions: 10 μM, Superdex 75, buffer with 0.1 mM DDM
Method: All peptides were loaded at a 10 μM concentration on a superdex 75 HR10/30 column equilibrated in a buffer containing 0.1 mM DDM to improve recovery (see “Materials and methods”). Chromatographic profiles of the CC2 mutant (dashed line) and the CC2 wild type (solid line) fused (BODIPY-Ant-CC2 (WT), BODIPY-Ant-CC2 (Mu), or not fused to the antennapedia sequence (CC2 (WT), CC2 (Mu)) are shown in left panels, and elution profiles of the LZ mutant (dashed line) and the wild type (solid line) fused (BODIPY-Ant-LZ (WT), BODIPY-Ant-LZ (Mu), or not fused to the antennapedia sequence (LZ (WT), LZ (Mu)) are represented in right panels. Elution volumes of globular protein markers are indicated by arrows: Oval, ovalbumin (43 kDa); Chym, chymotrypsinogene A (25 kDa); Ribo, Ribonuclease (13.4 kDa) and Apro, aprotinin (6.5 kDa).
The oligomeric states of peptides were determined by filtration as described in Traincard et al., 2003. In brief, 500 μl samples were loaded on a SUPERDEX™ 75 HR 10/30 column equilibrated in 50 mM Tris-HCl pH 8.0 containing 200 mM NaCl and 0.1 mM DDM, at a constant flow rate of 0.4 ml/min. The presence of the DDM detergent was added in the equilibrium buffer to minimize the adsorption in the column and to increase the peptide recovery. The column was calibrated in the same equilibrium buffer with blue dextran 2000 (void volume), dithioerythritol (total volume), bovine serum albumin (67 kDa, Rs=35.2 Å), ovalbumine (43 kDa, Rs=27.5 Å), chymotrypsinogen A (25 kDa, Rs=21.1 Å), ribonuclease A (13.7 kDa, Rs=16.4 Å), cytochrome C (12.4 kDa, Rs=17.7 Å) and aprotinin (6.5 KDa, Rs=13.5 Å).

[5] = system: LPS-induced NF-κB activation; test: NF-κB inhibition assay, first procedure: LPS-induced NF-κB dependent β-galactosidase reporter in 70Z/3-C3 cells; type: cell-based, murine; conditions: peptide 2 h, LPS 3 h, 70Z3-C3 cells (FIG. 3D)
Method: The resulting cell line, 70Z3-C3, was incubated for 2 hours in the absence or in the presence of 20 μM of antennapedia peptide (Ant), or BODIPY-labeled antennapedia peptide (BODIPY-Ant), or BODIPY-labeled antennapedia peptide coupled to CC2 (BODIPY-Ant-CC2) or LZ (BODIPY-Ant-LZ) peptides, After peptide internalization, cells were treated for 5 hours with LPS (3 μg/ml, (+) in left panel) or untreated (right panel and (−) in left panel) and the NF-κB activity was measured by β-galactosidase assay. Error bars represent the standard deviation of three separate experiments. (B) Concentration dependence of inhibition of LPS-induced NF-κB activation by BODIPY-Ant-CC2 peptide (left panel) or BODIPY-Ant-LZ peptide (right panel). Cells were treated as in (A) but with different concentration of peptide as indicated. The potential of each peptide to inhibit LPS-induced NF-κB activation was measured by determining the IC50 value that correspond to 50% inhibition of LPS-induced NF-κB activation as compared to the control (no peptide) (C). (D) Effect of the N-fusion sequence of antennapedia on the inhibition of NF-κB activation. Control (no peptide) or CC2, or LZ peptides, with (BODIPY-ANT-CC2, BODIPY-ANT-LZ) or without the antennapedia sequence at the N-terminus (CC2, LZ) were incubated for 2 hours with 70Z3-C3 cells followed with (+) or without (−) the LPS-treatment for 3 hours. NF-κB activity was then measured by β-galactosidase assay.
In a first procedure 2.2×10^5 70Z/3-C3 cells in 220 μl of RPMI 1640 supplemented with 10% fetal calf serum (FCS) and 50 μM β-mercaptoethanol were placed in a 96-well plate and incubated with various concentrations of peptide (0 to 20 μM) at 37° C. in 5% CO2 incubator. After two hours an equal portion (100 μl) of each cell sample transferred in two wells containing each 10^5 cells. One aliquot of cells was then treated for 5 hours with lipopolysaccharides from Salmonella abortus (Sigma) at 0.5 μg/ml final concentration, and the other one left-treated. After 5 hours, cells were centrifuged at 400×g for 5 min at room temperature and the cell pellets were washed three times with cold PBS (250 μl) by centrifugation. Cells were then lysed in the lysis buffer (25 mM tris-phosphate buffer at pH 7.8 containing 8 mM magnesium chloride, 1 mM dithioerythreitol, 1% Triton X-100, 15% glycerol and a protease inhibitor mixture (Roche)), and samples were centrifuged at 4° C. for 20 min to clarify the lysate. The supernatant was then kept on ice, and 30 μl was then assayed to measure the β-galactosidase activity with a plate luminometer (Berthold) using the GALACTON-STAR™ as chemiluminescent substrate (BD Biosciences Clontech, Bronstein et al., 1989). Background of reaction was measured by mixing for 1 hour 30 μl of lysis buffer with the reaction buffer (196 μl) and the GALACTON-STAR™ substrate (4 μl) provided by BD Biosciences. In a second procedure and a more stringent assay, 70Z/3-C3 cells (2.2×105 in 220 μl medium) were centrifuged at 400×g at room temperature after peptide internalization for 2 hours, and cell pellets were washed three times with 200 μl of PBS by centrifugation. Cells were then diluted three times with complete medium, and allowed to grow for at least 24 hours. The following steps are identical to the first procedure.
To analyze the inhibition potential of LPS-induced NF-κB activation by cell permeable BODIPY-Ant-CC2 and BODIPY-Ant-LZ peptides, the present inventors stably transfected the murine pre-B 70Z3 cell line with p12XlacZ-kB, which bears the β-galactosidase reporter gene under the control of the NF-κB transcription factor.

[6] = Circular dichroism studies of helix stability; type: physicochemical
Description: From circular dichroism studies (CD), it appears that CC2 and LZ peptides adopt a helicoidal structure, depending on their concentration. […] RMN and Rayon X Diffraction studies have confirmed the structure of CC2.

Row | Cellular uptake relative efficiency (FACS) [1] | Compound | Cytotoxicity Cell morphology FACS [2] | Cytotoxicity Cell morphology Microscope [2] | other results
1 | + | CC[C@H](C)[C@H](NC(=O)[C@H](CC(=O)O)NC(=O)[C@H](C)NC(=O)[C@H](CCC(N)=O)NC(=O)[C@H](C)NC(=O)[C@H](CCCCN)NC(=O)[C@H](CC(C)C)NC(=O)[C@H](CCCCN)NC(=O)[C@H](CCCCN)NC(=O)[C@H](Cc1c[nH]c2ccccc12)NC(=O)[C@H](CCCCN)NC(=O)[C@H](CCSC)NC(=O)[C@H](CCCNC(=N)N)NC(=O)[C@H](CCCNC(=N)N)NC(=O)[C@H](CC(N)=O)NC(=O)[C@H](CCC(N)=O)NC(=O)[C@H](Cc1ccccc1)NC(=O)[C@H](Cc1c[nH]c2ccccc12)NC(=O)[C@@H](NC(=O)[C@H](CCCCN)NC(=O)[C@@H](NC(=O)[C@H](CCC(N)=O)NC(=O)[C@H](CCCNC(=N)N)NC(=O)[C@H](CSC1CC(=O)N(CCNC(=O)CCC2=[N+]3C(=Cc4c(C)cc(C)n4[B-]3(F)F)C=C2)C1=O)NC(C)=O)[C@@H](C)CC)[C@@H](C)CC)C(=O)N[C@@H](Cc1ccc(O)cc1)C(=O)N[C@@H](CCCCN)C(=O)N[C@@H](C)C(=O)N[C@@H](CCCNC(=N)N)C(=O)N[C@@H](Cc1ccccc1)C(=O)N[C@@H](CCC(N)=O)C(=O)N[C@@H](C)C(=O)N[C@@H](CCC(=O)O)C(=O)N[C@@H](CCCNC(=N)N)C(=O)N[C@@H](Cc1c[nH]cn1)C(=O)N[C@@H](C)C(=O)N[C@@H](CCCNC(=N)N)C(=O)N[C@@H](CCC(=O)O)C(=O)N[C@@H](CCCCN)C(N)=O (stereo partly drawn) [BODIPY-Ant-NLM-DR] (Ac-C(BODIPYFLEthylmaleimide)RQIKIWFQNRRMKWKKLKAQADIYKARFQAERHAREK-NH2) | – | – | –
2 | ++++ | CC[C@H](C)[C@H](NC(=O)[C@H](CC(=O)O)NC(=O)[C@H](C)NC(=O)[C@H](CCC(N)=O)NC(=O)[C@H](C)NC(=O)[C@H](CCCCN)NC(=O)[C@H](CC(C)C)NC(=O)[C@H](CCCNC(=N)N)NC(=O)[C@H](CCCNC(=N)N)NC(=O)[C@H](CCCNC(=N)N)NC(=O)[C@H](CCCNC(=N)N)NC(=O)[C@H](CCCNC(=N)N)NC(=O)[C@H](CCCNC(=N)N)NC(=O)[C@H](CCCNC(=N)N)NC(=O)[C@H](CSC1CC(=O)N(CCNC(=O)CCC2=[N+]3C(=Cc4c(C)cc(C)n4[B-]3(F)F)C=C2)C1=O)NC(C)=O)C(=O)N[C@@H](Cc1ccc(O)cc1)C(=O)N[C@@H](CCCCN)C(=O)N[C@@H](C)C(=O)N[C@@H](CCCNC(=N)N)C(=O)N[C@@H](Cc1ccccc1)C(=O)N[C@@H](CCC(N)=O)C(=O)N[C@@H](C)C(=O)N[C@@H](CCC(=O)O)C(=O)N[C@@H](CCCNC(=N)N)C(=O)N[C@@H](Cc1c[nH]cn1)C(=O)N[C@@H](C)C(=O)N[C@@H](CCCNC(=N)N)C(=O)N[C@@H](CCC(=O)O)C(=O)N[C@@H](CCCCN)C(N)=O (stereo partly drawn) [BODIPY-R7-NLM-DR] (Ac-C(BODIPYFLEthylmaleimide)RRRRRRRLKAQADIYKARFQAERHAREK-NH2) | no | no | –
3 | ++ | CC[C@H](C)[C@H](NC(=O)[C@H](CC(=O)O)NC(=O)[C@H](C)NC(=O)[C@H](CCC(N)=O)NC(=O)[C@H](C)NC(=O)[C@H](CCCCN)NC(=O)[C@H](CC(C)C)NC(=O)[C@H](CCCNC(=N)N)NC(=O)[C@H](CCCNC(=N)N)NC(=O)[C@H](CCCNC(=N)N)NC(=O)[C@H](CCCNC(=N)N)NC(=O)[C@H](CCCNC(=N)N)NC(=O)[C@H](CCCNC(=N)N)NC(=O)[C@H](CCCNC(=N)N)NC(=O)[C@H](CCCNC(=N)N)NC(=O)[C@H](CCCNC(=N)N)NC(=O)[C@H](CSC1CC(=O)N(CCNC(=O)CCC2=[N+]3C(=Cc4c(C)cc(C)n4[B-]3(F)F)C=C2)C1=O)NC(C)=O)C(=O)N[C@@H](Cc1ccc(O)cc1)C(=O)N[C@@H](CCCCN)C(=O)N[C@@H](C)C(=O)N[C@@H](CCCNC(=N)N)C(=O)N[C@@H](Cc1ccccc1)C(=O)N[C@@H](CCC(N)=O)C(=O)N[C@@H](C)C(=O)N[C@@H](CCC(=O)O)C(=O)N[C@@H](CCCNC(=N)N)C(=O)N[C@@H](Cc1c[nH]cn1)C(=O)N[C@@H](C)C(=O)N[C@@H](CCCNC(=N)N)C(=O)N[C@@H](CCC(=O)O)C(=O)N[C@@H](CCCCN)C(N)=O (stereo partly drawn) [BODIPY-R9-NLM-DR] (Ac-C(BODIPYFLEthylmaleimide)RRRRRRRRRLKAQADIYKARFQAERHAREK-NH2) | no | no | Cytotoxicity MTS Assay ([2]; MTS cell proliferation assay (Promega)): no
4 | – | B-CRQIKIWFQNRRMKWKKSKGMQLEDLRQQGQQAEEAGVAKQELGDKLKEEAEQHKIV (C(BODIPY)RQIKIWFQNRRMKWKKSKGMQLEDLRQQGQQAEEAGVAKQELGDKLKEEAEQHKIV-NH2; not fully specified (N-terminus); printed as B-CRQIKIWFQNRRMKWKKSKGMQLEDLRQQGQQAEEAGVAKQELGDKLKEEAEQHKIV; reading uncertain) [BODIPY-Ant-CC2 (Mu)] | – | – | Effect on LPS-induced NF-κB activation [3]: did not affect the NF-κB activation
5 | – | SKGMQLEDLRQQLQQAEEALVAKQELIDKLKEEAEQHKIV [CC2 (WT)] | – | – | Oligomeric state by gel filtration [4]: trimer; LPS-induced NF-κB activation, peptides not fused to antennapedia [5]: same level of activation as the control; Helix stability by circular dichroism [6]: helix more stable than LZ
